Results from ChEMBL document CHEMBL1201862, “PubChem BioAssay data set” (2004).
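Interpolation was linear, between the two tested concentrations surrounding the appropriate level; five concentrations were tested over 48 hours in 96-well plates. The concentration for 50% growth inhibition is given as GI50.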 The source made the active and inactive calls. Rule as the data show it: active = GI50 up to about 1.1 µM and inactive = higher.

Assays:
Test in all cases: NCI anticancer screen, dose series, 48 h
786-0 = tested on: 786-0
A549 = tested on: A549
CAKI-1 = tested on: CAKI-1
CCRF-CEM = tested on: CCRF-CEM
DU-145 = tested on: DU-145
HCC 2998 = tested on: HCC 2998
HOP-92 = tested on: HOP-92
K562 = tested on: K562
MCF7 = tested on: MCF7
NCI-H460 = tested on: NCI-H460
OVCAR-4 = tested on: OVCAR-4
OVCAR-8 = tested on: OVCAR-8
SF-539 = tested on: SF-539
SK-MEL-28 = tested on: SK-MEL-28
SR = tested on: SR
U-251 = tested on: U-251
UACC-257 = tested on: UACC-257
UACC-62 = tested on: UACC-62
UO-31 = tested on: UO-31
MDA-N = tested on: MDA-N

Structure (SMILES)	GI50 (786-0)	GI50 (A549)	GI50 (CAKI-1)	GI50 (CCRF-CEM)	GI50 (DU-145)	GI50 (HCC 2998)	GI50 (HOP-92)	GI50 (K562)	GI50 (MCF7)	GI50 (NCI-H460)	GI50 (OVCAR-4)	GI50 (OVCAR-8)	GI50 (SF-539)	GI50 (SK-MEL-28)	GI50 (SR)	GI50 (U-251)	GI50 (UACC-257)	GI50 (UACC-62)	GI50 (UO-31)	GI50 (MDA-N)
Cc1nc2ccccc2c(=O)n1-c1n[nH]c2ccccc12	> 100 µM (inactive)	> 100 µM (inactive)	> 100 µM (inactive)	> 100 µM (inactive)	> 100 µM (inactive)	> 100 µM (inactive)	> 100 µM (inactive)	> 100 µM (inactive)	> 100 µM (inactive)	> 100 µM (inactive)	> 100 µM (inactive)	> 100 µM (inactive)	> 100 µM (inactive)	> 100 µM (inactive)	> 100 µM (inactive)	> 100 µM (inactive)	> 100 µM (inactive)	> 100 µM (inactive)	> 100 µM (inactive)	
CC1CN(C)c2ccccc2N=C1NN (stereo not drawn)	> 100 µM (inactive)	> 100 µM (inactive)	> 100 µM (inactive)	87.5 µM (inactive)	> 100 µM (inactive)			88.3 µM (inactive)		> 100 µM (inactive)	> 100 µM (inactive)	> 100 µM (inactive)		> 100 µM (inactive)		> 100 µM (inactive)	> 100 µM (inactive)	> 100 µM (inactive)	> 100 µM (inactive)	> 100 µM (inactive)
Brc1ccc(/N=N/c2ccc3ccccc3n2)cc1	14.2 µM (inactive)	46.9 µM (inactive)	14.1 µM (inactive)	> 100 µM (inactive)	> 100 µM (inactive)		33.2 µM (inactive)		25.6 µM (inactive)	7.5 µM (inactive)		30.3 µM (inactive)	22.2 µM (inactive)			16.7 µM (inactive)	82.8 µM (inactive)	15.6 µM (inactive)	11.2 µM (inactive)	31.8 µM (inactive)
CC1=NOC2(C1)/C(=N/O)CCC/C2=N\O (stereo not drawn)	> 100 µM (inactive)	> 100 µM (inactive)	> 100 µM (inactive)	> 100 µM (inactive)		> 100 µM (inactive)		> 100 µM (inactive)	> 100 µM (inactive)	> 100 µM (inactive)	> 100 µM (inactive)	> 100 µM (inactive)	> 100 µM (inactive)	> 100 µM (inactive)	> 100 µM (inactive)	> 100 µM (inactive)	> 100 µM (inactive)	> 100 µM (inactive)	> 100 µM (inactive)	> 100 µM (inactive)
CC(CO)(CBr)COC(=O)c1cc(Br)c(N)c(Br)c1 (stereo not drawn)	50.1 µM (inactive)	> 100 µM (inactive)	81.3 µM (inactive)	> 100 µM (inactive)	48.8 µM (inactive)	> 100 µM (inactive)	20.4 µM (inactive)	> 100 µM (inactive)			> 100 µM (inactive)	> 100 µM (inactive)	> 100 µM (inactive)	> 100 µM (inactive)	30.7 µM (inactive)	54 µM (inactive)	> 100 µM (inactive)	> 100 µM (inactive)	2.67 µM (inactive)	59.7 µM (inactive)
CC(C)[C@H](O)C(=O)N[C@H]1Cc2ccc3c(c2)[C@]24C5=C(N=C(O5)[C@H](C(C)C)NC1=O)c1nc(Cl)c(o1)-c1c(Cl)[nH]c5cccc(c15)-c1cccc2c1N[C@H]4O3	0.00535 µM (active)	0.0148 µM (active)	0.0968 µM (active)	0.00103 µM (active)	0.00524 µM (active)	0.00879 µM (active)	0.00693 µM (active)	0.00427 µM (active)	0.00274 µM (active)	0.0119 µM (active)	1.57 µM (inactive)		0.00403 µM (active)	0.00718 µM (active)		0.00547 µM (active)	0.0229 µM (active)		0.0457 µM (active)	0.00162 µM (active)
COC(=O)/C=C(\S/C(=C(/c1ccccc1)n1cc(C(=O)OC)c(C(=O)OC)n1)c1ccccc1)C(=O)OC	4.79 µM (inactive)	23.9 µM (inactive)	2.48 µM (inactive)	3.12 µM (inactive)	14.7 µM (inactive)			3.54 µM (inactive)	5.26 µM (inactive)	30.8 µM (inactive)	13 µM (inactive)	2 µM (inactive)	15.8 µM (inactive)	20.7 µM (inactive)	11.6 µM (inactive)	23.2 µM (inactive)	7.33 µM (inactive)	30.5 µM (inactive)	2.24 µM (inactive)	17.1 µM (inactive)
CN(C)CCCN1c2ccccc2CCc2ccc([N+](=O)[O-])cc21	33 µM (inactive)	34.6 µM (inactive)	40.6 µM (inactive)	39.2 µM (inactive)	18.4 µM (inactive)	13.9 µM (inactive)		30.3 µM (inactive)	17.7 µM (inactive)	19.5 µM (inactive)	35.5 µM (inactive)	29.6 µM (inactive)		25.5 µM (inactive)	25.9 µM (inactive)	29.3 µM (inactive)	16.3 µM (inactive)	16.1 µM (inactive)	16 µM (inactive)	18.5 µM (inactive)
CN(CCN(C)Cc1ccc(Cl)c(Cl)c1)CCN1CCCC1	17.1 µM (inactive)	22.6 µM (inactive)	36 µM (inactive)	3.72 µM (inactive)	61.2 µM (inactive)	14.5 µM (inactive)	4.44 µM (inactive)	9.16 µM (inactive)	28.4 µM (inactive)	27.5 µM (inactive)	52.5 µM (inactive)	20.1 µM (inactive)	19.6 µM (inactive)	6.78 µM (inactive)		21.3 µM (inactive)	9.16 µM (inactive)	2.79 µM (inactive)	11.6 µM (inactive)	13.2 µM (inactive)
Cc1c(-c2nc(N)c(C#N)c(N)c2C#N)c(=O)oc2ccccc12	73.8 µM (inactive)	45.7 µM (inactive)	> 100 µM (inactive)	69 µM (inactive)	> 100 µM (inactive)	> 100 µM (inactive)	> 100 µM (inactive)	59.4 µM (inactive)	73.6 µM (inactive)	> 100 µM (inactive)	> 100 µM (inactive)	> 100 µM (inactive)	> 100 µM (inactive)	> 100 µM (inactive)		55.3 µM (inactive)	> 100 µM (inactive)	> 100 µM (inactive)	> 100 µM (inactive)	> 100 µM (inactive)
CNc1nnc(CCCCCCCCc2nnc(NC)o2)o1	21.1 µM (inactive)	> 100 µM (inactive)	14.8 µM (inactive)	16.2 µM (inactive)	> 100 µM (inactive)		> 100 µM (inactive)	31.9 µM (inactive)	20.7 µM (inactive)	42 µM (inactive)	> 100 µM (inactive)	34.8 µM (inactive)	> 100 µM (inactive)	> 100 µM (inactive)		22.2 µM (inactive)	51.8 µM (inactive)		> 100 µM (inactive)	> 100 µM (inactive)
